Laboratory results as given in the NIST ThermoML archive (doi:10.1021/je034062r).

Test: xn = mol fraction of the nth substance listed
Conditions: for mass density: Liquid; for surface tension liquid-gas: Pendant drop shape

CC(C)=O [acetone] + Cc1ccccc1
Conditions | mass density [kg/m3] | surface tension liquid-gas [mN/m]
283.15 K, x2 = 0 | 803.2 | –
283.15 K, x2 = 0.1 | 815.1 | –
283.15 K, x2 = 0.2002 | 823.5 | –
283.15 K, x2 = 0.3002 | 832.2 | –
283.15 K, x2 = 0.3997 | 841.2 | –
283.15 K, x2 = 0.4973 | 847.6 | –
283.15 K, x2 = 0.6011 | 854.7 | –
283.15 K, x2 = 0.7004 | 860.8 | –
283.15 K, x2 = 0.7998 | 866.4 | –
283.15 K, x2 = 0.8982 | 871.5 | –
287.81 K, x2 = 0 | – | 23.94
287.81 K, x2 = 0.1 | – | 24.56
287.81 K, x2 = 0.2002 | – | 25.24
287.81 K, x2 = 0.3002 | – | 25.89
287.81 K, x2 = 0.3997 | – | 26.46
287.81 K, x2 = 0.4973 | – | 27.1
287.81 K, x2 = 0.6011 | – | 27.68
287.81 K, x2 = 0.7004 | – | 28.24
287.81 K, x2 = 0.7998 | – | 28.48
287.81 K, x2 = 0.8982 | – | 28.73
288.15 K, x2 = 0 | 798.2 | –
288.15 K, x2 = 0.1 | 809.8 | –
288.15 K, x2 = 0.2002 | 818.2 | –
288.15 K, x2 = 0.3002 | 826.8 | –
288.15 K, x2 = 0.3997 | 836.1 | –
288.15 K, x2 = 0.4973 | 842.6 | –
288.15 K, x2 = 0.6011 | 849.9 | –
288.15 K, x2 = 0.7004 | 856 | –
288.15 K, x2 = 0.7998 | 861.7 | –
288.15 K, x2 = 0.8982 | 866.9 | –
293.15 K, x2 = 0 | 792.6 | –
293.15 K, x2 = 0.1 | 804.2 | –
293.15 K, x2 = 0.2002 | 812.5 | –
293.15 K, x2 = 0.3002 | 821.4 | –
293.15 K, x2 = 0.3997 | 830.7 | –
293.15 K, x2 = 0.4973 | 837.3 | –
293.15 K, x2 = 0.6011 | 844.6 | –
293.15 K, x2 = 0.7004 | 850.9 | –
293.15 K, x2 = 0.7998 | 856.6 | –
293.15 K, x2 = 0.8982 | 861.9 | –
297.82 K, x2 = 0 | – | 22.78
297.82 K, x2 = 0.1 | – | 23.28
297.82 K, x2 = 0.2002 | – | 23.78
297.82 K, x2 = 0.3002 | – | 24.36
297.82 K, x2 = 0.3997 | – | 24.93
297.82 K, x2 = 0.4973 | – | 25.55
297.82 K, x2 = 0.6011 | – | 26
297.82 K, x2 = 0.7004 | – | 26.5
297.82 K, x2 = 0.7998 | – | 27.1
297.82 K, x2 = 0.8982 | – | 27.33
298.15 K, x2 = 0 | 787 | –
298.15 K, x2 = 0.1 | 798.8 | –
298.15 K, x2 = 0.2002 | 807.1 | –
298.15 K, x2 = 0.3002 | 816.1 | –
298.15 K, x2 = 0.3997 | 825.6 | –
298.15 K, x2 = 0.4973 | 832.3 | –
298.15 K, x2 = 0.6011 | 839.7 | –
298.15 K, x2 = 0.7004 | 846.1 | –
298.15 K, x2 = 0.7998 | 851.9 | –
298.15 K, x2 = 0.8982 | 857.3 | –
303.15 K, x2 = 0 | 781.2 | –
303.15 K, x2 = 0.1 | 793.3 | –
303.15 K, x2 = 0.2002 | 801.6 | –
303.15 K, x2 = 0.3002 | 810.8 | –
303.15 K, x2 = 0.3997 | 820.4 | –
303.15 K, x2 = 0.4973 | 827.2 | –
303.15 K, x2 = 0.6011 | 834.7 | –
303.15 K, x2 = 0.7004 | 841.3 | –
303.15 K, x2 = 0.7998 | 847.2 | –
303.15 K, x2 = 0.8982 | 852.6 | –
307.86 K, x2 = 0 | – | 21.59
307.86 K, x2 = 0.1 | – | 22.08
307.86 K, x2 = 0.2002 | – | 22.58
307.86 K, x2 = 0.3002 | – | 23.1
307.86 K, x2 = 0.3997 | – | 23.77
307.86 K, x2 = 0.4973 | – | 24.4
307.86 K, x2 = 0.6011 | – | 25
307.86 K, x2 = 0.7004 | – | 25.4
307.86 K, x2 = 0.7998 | – | 26
307.86 K, x2 = 0.8982 | – | 26.24
308.15 K, x2 = 0 | 775.4 | –
308.15 K, x2 = 0.1 | 787.7 | –
308.15 K, x2 = 0.3002 | 805.5 | –
308.15 K, x2 = 0.3997 | 815.1 | –
308.15 K, x2 = 0.4973 | 822.1 | –
308.15 K, x2 = 0.6011 | 829.7 | –
308.15 K, x2 = 0.7004 | 836.4 | –
308.15 K, x2 = 0.7998 | 842.4 | –
308.15 K, x2 = 0.8982 | 847.9 | –
313.15 K, x2 = 0 | 769.6 | –
313.15 K, x2 = 0.1 | 782 | –
313.15 K, x2 = 0.2002 | 790.4 | –
313.15 K, x2 = 0.3002 | 800.1 | –
313.15 K, x2 = 0.3997 | 809.7 | –
313.15 K, x2 = 0.4973 | 816.9 | –
313.15 K, x2 = 0.6011 | 824.7 | –
313.15 K, x2 = 0.7004 | 831.4 | –
313.15 K, x2 = 0.7998 | 837.6 | –
313.15 K, x2 = 0.8982 | 843.2 | –
317.86 K, x2 = 0 | – | 20.33
317.86 K, x2 = 0.1 | – | 20.9
317.86 K, x2 = 0.2002 | – | 21.44
317.86 K, x2 = 0.3002 | – | 22.18
317.86 K, x2 = 0.3997 | – | 22.67
317.86 K, x2 = 0.4973 | – | 23.25
317.86 K, x2 = 0.6011 | – | 24.11
317.86 K, x2 = 0.7004 | – | 24.4
317.86 K, x2 = 0.7998 | – | 24.99
317.86 K, x2 = 0.8982 | – | 25.2
318.15 K, x2 = 0 | 762.5 | –
318.15 K, x2 = 0.1 | 776.2 | –
318.15 K, x2 = 0.2002 | 784.6 | –
318.15 K, x2 = 0.3002 | 794.6 | –
318.15 K, x2 = 0.3997 | 804.2 | –
318.15 K, x2 = 0.4973 | 811.6 | –
318.15 K, x2 = 0.6011 | 819.5 | –
318.15 K, x2 = 0.7004 | 826.4 | –
318.15 K, x2 = 0.7998 | 832.7 | –
318.15 K, x2 = 0.8982 | 838.4 | –
323.15 K, x2 = 0 | 756.2 | –
323.15 K, x2 = 0.1 | 770.2 | –
323.15 K, x2 = 0.2002 | 778.9 | –
323.15 K, x2 = 0.3002 | 789.1 | –
323.15 K, x2 = 0.3997 | 798.6 | –
323.15 K, x2 = 0.4973 | 806.3 | –
323.15 K, x2 = 0.6011 | 814.4 | –
323.15 K, x2 = 0.7998 | 827.7 | –
323.15 K, x2 = 0.8982 | 833.6 | –
327.88 K, x2 = 0 | – | 19.01
327.88 K, x2 = 0.1 | – | 19.74
327.88 K, x2 = 0.2002 | – | 20.32
327.88 K, x2 = 0.3002 | – | 21.07
327.88 K, x2 = 0.3997 | – | 21.8
327.88 K, x2 = 0.4973 | – | 22.2
327.88 K, x2 = 0.6011 | – | 22.97
327.88 K, x2 = 0.7004 | – | 23.56
327.88 K, x2 = 0.7998 | – | 23.83
327.88 K, x2 = 0.8982 | – | 24.14
328.15 K, x2 = 0 | 749.3 | –
328.15 K, x2 = 0.1 | 764 | –
328.15 K, x2 = 0.2002 | 773.2 | –
328.15 K, x2 = 0.3002 | 783.5 | –
328.15 K, x2 = 0.3997 | 792.9 | –
328.15 K, x2 = 0.4973 | 801 | –
328.15 K, x2 = 0.6011 | 809.2 | –
328.15 K, x2 = 0.7004 | 816.3 | –
328.15 K, x2 = 0.7998 | 822.8 | –
328.15 K, x2 = 0.8982 | 828.7 | –
333.15 K, x2 = 0 | 742.3 | –
333.15 K, x2 = 0.1 | 757.3 | –
333.15 K, x2 = 0.2002 | 767.5 | –
333.15 K, x2 = 0.3002 | 778.1 | –
333.15 K, x2 = 0.3997 | 787.3 | –
333.15 K, x2 = 0.4973 | 795.6 | –
333.15 K, x2 = 0.6011 | 803.9 | –
333.15 K, x2 = 0.7004 | 811.2 | –
333.15 K, x2 = 0.7998 | 817.8 | –
333.15 K, x2 = 0.8982 | 823.8 | –
